According to patent publication US10111956B2, “Corticosteroid compositions” (TOLMAR, Inc., priority 2013, dated 2018):

How the values were obtained:
[1] = Solubility of corticosteroids in neat solvents, measured gravimetrically; type: physicochemical; settings: for Solubility in PG Monocaprylate: neat PG monocaprylate; for Solubility in PG Monocaprylate / Solubility in PG Monolaurate / Solubility in Isopropyl Myristate: room temperature, examined at about 24 hours; for Solubility in PG Monolaurate: neat PG monolaurate; for Solubility in Isopropyl Myristate: neat isopropyl myristate; for times more soluble in PG monocaprylate than in isopropyl myristate / times more soluble in PG monolaurate than in isopropyl myristate: ratio of Table 1 solubilities
Procedure: (§1) The solubilities of various corticosteroids in propylene glycol (PG) monocaprylate, PG monolaurate, or isopropyl myristate were measured gravimetrically. Corticosteroid, PG monocaprylate, PG monolaurate, and/or isopropyl myristate were placed in glass vials and weighed on an analytical balance to four decimals places. Test solutions were stirred and shaken at room temperature for up to 30 minutes. Test solutions were examined at about 24 hours for clarity or non-dissolved material.

[2] = Solubility of corticosteroid in mixtures of solvent components (procedure of Example 1); type: physicochemical
Procedure: as §1

| SMILES | Solubility in PG Monocaprylate [1] | Solubility in PG Monolaurate [1] | Solubility in Isopropyl Myristate [1] | times more soluble in PG monocaprylate than in isopropyl myristate [1] | times more soluble in PG monolaurate than in isopropyl myristate [1] | other results |
| --- | --- | --- | --- | --- | --- | --- |
| CCCC(=O)O[C@]1(C(=O)CO)CC[C@H]2[C@@H]3CCC4=CC(=O)CC[C@]4(C)[C@H]3[C@@H](O)C[C@@]21C [Hydrocortisone Butyrate] | 2.0 % w/w | 1.35 % w/w | 0.10 % w/w | 20 times | 13.5 times | – |
| CCC(=O)OCC(=O)[C@@]1(OC(=O)CC)[C@@H](C)C[C@H]2[C@@H]3CCC4=CC(=O)C=C[C@]4(C)[C@@]3(F)[C@@H](O)C[C@@]21C [Betamethasone Dipropionate] | 4.0 % w/w | 2.30 % w/w | 0.15 % w/w | 27 times | 15.3 times | – |
| CCC(=O)O[C@]1(C(=O)CCl)[C@@H](C)C[C@H]2[C@@H]3CCC4=CC(=O)C=C[C@]4(C)[C@@]3(F)[C@@H](O)C[C@@]21C [Clobetasol Propionate] | 4.0 % w/w | 1.80 % w/w | 0.25 % w/w | 16 times | 7.2 times | – |
| C[C@@H]1C[C@H]2[C@@H]3CCC4=CC(=O)C=C[C@]4(C)[C@@]3(Cl)[C@@H](O)C[C@]2(C)[C@@]1(OC(=O)c1ccco1)C(=O)CCl [Mometasone Fuorate] | 0.7 % w/w | – | – | – | – | – |

Further lines, with some results ahead:

| Solubility in PG Monocaprylate [1] | Solubility in PG Monolaurate [1] | Solubility in Isopropyl Myristate [1] | times more soluble in PG monocaprylate than in isopropyl myristate [1] | times more soluble in PG monolaurate than in isopropyl myristate [1] | SMILES | other results |
| --- | --- | --- | --- | --- | --- | --- |
| 1.15 % w/w | 0.40 % w/w | – | – | – | CC1(C)O[C@@H]2C[C@H]3[C@@H]4CCC5=CC(=O)C=C[C@]5(C)[C@H]4[C@@H](O)C[C@]3(C)[C@]2(C(=O)CO)O1 [Desonide] | – |
| 0.65 % w/w | 0.30 % w/w | <0.04 % w/w | at least 16 times | at least 7.5 times | CC1(C)O[C@@H]2C[C@H]3[C@@H]4CCC5=CC(=O)C=C[C@]5(C)[C@@]4(F)[C@@H](O)C[C@]3(C)[C@]2(C(=O)CO)O1 [Triamcinolone Acetonide] | increase of solubility on addition of ethoxydiglycol to PG alone ([2]; 12:12:0 ethoxydiglycol:PG:PG monocaprylate versus PG alone, Example 5): 1.7 fold; Solubility ([2]; Ethoxydiglycol:PG:PG Monocaprylate 12:0:12, Table 7): 1.53 % w/w; Solubility ([2]; Ethoxydiglycol:PG:PG Monocaprylate 12:3:9, Table 7): 2.00 % w/w; Solubility ([2]; Ethoxydiglycol:PG:PG Monocaprylate 12:6:6, Table 7): 2.30 % w/w; Solubility ([2]; Ethoxydiglycol:PG:PG Monocaprylate 12:9:3, Table 7): 2.45 % w/w; Solubility ([2]; Ethoxydiglycol:PG:PG Monocaprylate 12:12:0, Table 7): 2.45 % w/w; solubility in ethoxydiglycol:PG:PG monocaprylate mixture compared with PG:PG monocaprylate mixture ([2]; FIG. 4): more soluble; solubility in PG:PG monocaprylate mixtures compared with expected solubility (dashed line) ([2]; FIG. 4, each tested mixture containing both PG and PG monocaprylate): more soluble in the mixture than expected; Solubility ([2]; PG:PG Monocaprylate 0:100 (PG monocaprylate alone), Table 6): 0.60 % w/w; Solubility ([2]; PG:PG Monocaprylate 25:75, Table 6): 1.25 % w/w; Solubility ([2]; PG:PG Monocaprylate 50:50, Table 6): 1.60 % w/w; Solubility ([2]; PG:PG Monocaprylate 75:25, Table 6): 1.50 % w/w; Solubility ([2]; PG:PG Monocaprylate 90:10, Table 6): 1.15 % w/w; Solubility ([2]; PG:PG Monocaprylate 100:0 (PG alone), Table 6): 0.90 % w/w; Solubility in PG Monolaurate ([1]; listed as triamcinolone acetonide): 0.3 % w/w |
| 0.3 % w/w | – | <0.03 % w/w | 10 times | – | CCC(=O)O[C@]1(C(=O)SCF)[C@H](C)C[C@H]2[C@@H]3C[C@H](F)C4=CC(=O)C=C[C@]4(C)[C@@]3(F)[C@@H](O)C[C@@]21C [Fluticasone Propionate] | – |
